The structures appear in SMILES notation.

One series concerns Beagle dogs. The note with it: cited from earlier work.
Another series relates to human tumour cell lines. The experiment in a line: selectivity of cytotoxicity over all cell lines evaluated (Tables 1 and 2). It counts as cell-based. An excerpt:
The origins of the human melanoma cell line MM96 has been described in Whitehead et al., 1973, Pigment Cell 1 383-389. The cell line JAM is described in Ward et al., 1987, Cancer Res. 47 2662-2667. The origin of the ovarian tumour line CI-80-13S has been described in Bertoncello et al., 1985, Aust. J. Exp. Biol. Med. Sci. 63 241-243. The origin of the cervical carcinoma cell line HeLa has been described in Maynard et al., 1986, Cancer Res. 46 5009-5093. The subclone HeLa-S1a was derived by stably transfecting HeLa with PAI-2 cDNA described in Schleuning et al., 1987, Mol. Cell. Biol. 7 4564-4567 in the sense orientation under the control of the cyto-megalovirus (CMV) promoter. The stably infected subclone was isolated following G418 selection and expression of the PAI-2 transgene characterised by immunoblot analysis and quantitated by ELISA. All of these cell lines have been used before for carrying out cell survival assays referred to in FIGS. 1-4. Cells were cultured at 37° in 5% CO2 /air in Roswell Park Memorial Institute medium 1640 containing 5% foetal calf serum, 100 μg/ml streptomycin, 100 IU/ml penicillin, 1 mM pyruvate, 50 μM nicotinamide and 3 mM HEPES.
Cells were seeded in microtitre plates (lowest number for fastest growing cells: 1000 HeLa, 2000 MM96, […] CI-80-13S cells per 6 mm well in 100 μl), normally but not necessarily allowed to attach overnight, then 5 dilutions of the drug were added to duplicate wells. After an overnight incubation to equilibrate the pH, the lids were quickly taped around the edge to prevent evaporation. The plates were incubated for 5-7 days, until the controls were nearly confluent. Cell growth/morphology was scored at each dose visually (inverted microscope). The medium was then replaced by 50 μl fresh medium containing 2 u/Ci/ml [methyl-3H]-thymidine (5 Ci/mmol; Radiochemical Centre, Amersham, Bucks., U.K.) and incubated for 2-4 hr. The cells were washed with PBS (0.1 M NaCl, 50 mM phosphate, pH 7.2), detached with 100 μl of PBS containing 0.2 mg/ml trypsin and 10 mM EDTA, and washed onto a glass fibre GF/a filter mat with water using a cell harvester. Later, wells were checked under the microscope to ensure complete detachment and washout. Radioactivity was determined in an LKB Beta Plate counter and the results plotted as log % control cpm versus dose. The ID50 (dose required to give 50% survival) was interpolated from this survival curve.
The sensitive CH1 cell line was established from a patient with drug-sensitive disease and its resistant variant (CH1-cisR) was generated by prolonged in vitro exposure to cisplatin during which it acquired more efficient DNA repair as described in Kelland et al., 1992, Cancer Research 52 3857-3864. The sensitive 41M cell line was also established from a patient with a sensitive tumor and its resistant variant (41M-cisR) was generated in the same way but acquired decreased uptake across the cell membrane (Kelland et al., 1992, supra). The intrinsically-resistant SKOV-3 ovarian carcinoma cell line has high glutathione levels as described in Mistry et al., 1991, Brit. J. Cancer 64 215-220 and reduced levels of bi-functional cisplatin-DNA lesions as described in McKeage et al., 1994, Brit. J. Cancer 69 1-7. The characteristics of the cell line pairs CH1/CH1 cisR, 41M/41McisR and 41M/SKOV3 are described in Table 3.
The cytotoxicity assay used sulforhodamine B which stains the basic amino acids. Cells (5000 or 2500 for SKOV-3) were seeded into 96 well microtitre plates (Linbro, Flow Laboratories Inc., USA) in 0.1 ml of medium. After an overnight incubation, the metal phosphine compounds were dissolved in 0.9% NaCl or ethanol and diluted with medium, were added at concentrations ranging from 0.005 to 50 μM to quadruplicate wells. After 96 hrs incubation, the medium was removed and cells were fixed in 0.2 ml of cold 10% (w/v) trichloroacetic acid (May & Baker Ltd., Dagenham, England) for 30 mins at 4° C. The plates were washed five times with tap water. […]

Another series relates to tumour models in mice. The note with it: literature; mice; cited from earlier work.
Series [1] has as its system mitochondrial membrane / oxidative phosphorylation. As to conditions: cited from earlier work.
The test system of the next series is HeLa. As to conditions: ID37 data from Ying Dong et al. submitted for publication; cited from earlier work.
In another series the test system is DNA in tumour cells. As to conditions: cited from earlier work.
Another series relates to CI-80-13S. As to conditions: ID37 data from Ying Dong et al. submitted for publication; cited from earlier work.
For a further series, the system named is HeLa-S1a. As to conditions: ID37 data from Ying Dong et al. submitted for publication; cited from earlier work.
The conditions of series [2]: attributed to lipophilic cationic properties; cited from earlier work.
The next series concerns JAM. The note with it: ID37 data from Ying Dong et al. submitted for publication; cited from earlier work.

On to `[Au+].[Cl-].c1ccc(P(CCP(c2ccccc2)c2ccccc2)c2ccccc2)cc1.c1ccc(P(CCP(c2ccccc2)c2ccccc2)c2ccccc2)cc1` [[Au(dppe)2]Cl], for which the “toxicities in preclinical trials” value with Beagle dogs is “severe cardiac, hepatic and vascular toxicities”. Also, the degree of selectivity result with human tumour cell lines (Tables 1 and 2) was “the least selectivity”. Moreover, the “number of cell lines against which cytotoxic” value in the series on human tumour cell lines (nine cell-lines tested / all evaluated) is recorded as “cytotoxic to all the cell lines evaluated”. In addition, the antitumour activity result with tumour models in mice is “good antitumour activity”. In addition, the “effect on mitochondrial function” value in [1] is “uncouples oxidative phosphorylation via dissipation of the membrane potential”. Further, the “ID37” value was 0.95 ± 0.13 µM with HeLa, 0.20 ± 0.03 µM in the series on CI-80-13S, 0.073 ± 0.005 µM with HeLa-S1a and 0.73 ± 0.15 µM in the series on JAM. Also, the DNA damage entry in the series with DNA in tumour cells was “produced DNA-single strand breaks and DNA-protein crosslinks in tumour cells”. Besides, the hepatotoxicity result in [2] is “severe and unacceptable hepatotoxicity”.

These data come from patent publication US6218378A, “Anti-tumor agents comprising pyridyl-substituted metal-diphosphine complex” (priority 1994, dated 2001).
